This passage reports Ki results from patent publication EP2970215B1, “PYRROLIDINE DERIVATIVES, PHARMACEUTICAL COMPOSITIONS CONTAINING THEM, AND THEIR USE IN THERAPY” (AbbVie Deutschland GmbH & Co. KG, priority 2013, dated 2014).

The experiment has as its target T1, human GlyT1c transporter (Homo sapiens, UniProt P48067).
T1 construct: expressed in transfected cells; host or cells: CHO cells (recombinant; line hGlyT1c_5_CHO is named for the uptake assay)
T1 sequence (P48067 1-706): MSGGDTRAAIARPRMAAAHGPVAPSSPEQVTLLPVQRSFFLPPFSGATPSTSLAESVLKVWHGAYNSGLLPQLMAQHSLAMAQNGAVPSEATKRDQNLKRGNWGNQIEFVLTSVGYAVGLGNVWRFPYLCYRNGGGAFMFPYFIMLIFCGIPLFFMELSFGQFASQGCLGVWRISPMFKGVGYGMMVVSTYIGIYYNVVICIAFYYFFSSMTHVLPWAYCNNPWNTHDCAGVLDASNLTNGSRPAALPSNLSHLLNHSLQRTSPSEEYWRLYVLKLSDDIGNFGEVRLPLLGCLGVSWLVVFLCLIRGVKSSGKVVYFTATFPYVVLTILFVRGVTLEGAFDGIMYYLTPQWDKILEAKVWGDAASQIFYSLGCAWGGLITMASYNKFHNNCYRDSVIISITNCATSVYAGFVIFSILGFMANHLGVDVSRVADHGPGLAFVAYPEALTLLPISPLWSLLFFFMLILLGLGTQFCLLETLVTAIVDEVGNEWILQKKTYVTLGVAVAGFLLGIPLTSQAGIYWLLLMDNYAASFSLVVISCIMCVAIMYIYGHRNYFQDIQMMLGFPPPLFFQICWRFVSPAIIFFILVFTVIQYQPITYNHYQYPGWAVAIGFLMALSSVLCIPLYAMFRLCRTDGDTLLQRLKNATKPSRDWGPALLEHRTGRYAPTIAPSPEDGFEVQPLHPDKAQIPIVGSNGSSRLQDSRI
Nature of the experiment: Radioligand binding assay using recombinant CHO cell membranes expressing human GlyT1. An excerpt:
2. Radioligand binding assays using recombinant CHO cell membranes expressing human GlyT1: […]

The mark [1] stands for this setting: radioligand binding to human GlyT1c transporter-expressing membranes.
[2] abbreviates: radioligand binding, recombinant CHO cell membranes expressing human GlyT1c.

Usually Ki stands for the dissociation constant of the complex between target and ligand, obtained from inhibition or displacement. Regarding `CCCNC(=O)[C@@H]1CN(S(=O)(=O)c2cn(C)cn2)C[C@H]1c1ccc(F)cc1` [Example 580, (3S,4R)-4-(4-fluorophenyl)-1-[(1-methyl-1H-imidazol-4-yl)sulfonyl]-N-propylpyrrolidine-3-carboxamide], under setting [1], the inhibitory constant (Ki) is not above 1000 nM.
For `Cc1nn(C(C)C)cc1S(=O)(=O)N1CC(Nc2ccc(F)c(F)c2)C(c2ccccc2)C1` (centres unmarked) [Example 475, N-(3,4-difluorophenyl)-1-{[3-methyl-1-(propan-2-yl)-1H-pyrazol-4-yl]sulfonyl}-4-phenylpyrrolidin-3-amine], the inhibitory constant (Ki) under setting [1] is not above 10000 nM.
For `Cn1cnc(S(=O)(=O)N2C[C@H](c3ccccc3)[C@H](Nc3ccccc3)C2)c1` (relative stereo) [Example 184, (cis)-1-[(1-methyl-1H-imidazol-4-yl)sulfonyl]-N,4-diphenylpyrrolidin-3-amine], the Ki under setting [1] is not above 10000 nM.
Turning to `COC[C@H](C)NC[C@@H]1CN(S(=O)(=O)c2cn(C)cn2)C[C@H]1c1ccc(F)cc1` (mixture of isomers) [Example 596, (2S)-N-({trans-4-(4-fluorophenyl)-1-[(1-methyl-1H-imidazol-4-yl)sulfonyl]pyrrolidin-3-yl}methyl)-1-methoxypropan-2-amine], the Ki under setting [1] is not above 10000 nM.
The same measure, in the same setting: under `Cn1cnc(S(=O)(=O)N2C[C@@H](Nc3cccc(C#N)c3F)[C@H](c3ccccc3)C2)c1` (relative stereo) [Example 77, 2-fluoro-3-({trans-1-[(1-methyl-1H-imidazol-4-yl)sulfonyl]-4-phenylpyrrolidin-3-yl}amino)benzonitrile] stands not above 1000 nM.
On to `COCC(C)NC(=O)[C@@H]1CN(S(=O)(=O)c2cn(C)cn2)C[C@H]1c1ccc(F)cc1` (stereo partly drawn) [Example 582, (3S,4R)-4-(4-fluorophenyl)-N-[1-methoxypropan-2-yl]-1-[(1-methyl-1H-imidazol-4-yl)sulfonyl]pyrrolidine-3-carboxamide], for which the Ki under setting [1] is not above 10000 nM.
Turning to `Cn1cnc(S(=O)(=O)N2C[C@@H](Nc3cc(C(F)(F)F)ccc3F)[C@H](c3ccccc3)C2)c1` (relative stereo) [Example 224, trans-N-[2-fluoro-5-(trifluoromethyl)phenyl]-1-[(1-methyl-1H-imidazol-4-yl)sulfonyl]-4-phenylpyrrolidin-3-amine], the Ki under setting [1] was not above 1000 nM.
Same read-out and setting: the value for `Cn1cnc(S(=O)(=O)N2C[C@@H](CNc3cccc(C(F)(F)F)c3)[C@H](c3ccc(F)cc3)C2)c1` (relative stereo) [Example 335, N-({Trans-4-(4-fluorophenyl)-1-[(1-methyl-1H-imidazol-4-yl)sulfonyl]pyrrolidin-3-yl}methyl)-3-(trifluoromethyl)aniline] was not above 1000 nM.
Regarding `Cn1cnc(S(=O)(=O)N2C[C@H](Nc3ccc(F)c(-c4ccncc4)c3)[C@@H](c3ccc(F)cc3)C2)c1` [Example 746, (3R,4S)-4-(4-fluorophenyl)-N-[4-fluoro-3-(pyridin-4-yl)phenyl]-1-[(1-methyl-1H-imidazol-4-yl)sulfonyl]pyrrolidin-3-amine], under setting [1], the Ki was not above 10 nM.
`Cn1cnc(S(=O)(=O)N2C[C@@H](Nc3cccc(Cl)c3)[C@H](C3CCCCO3)C2)c1` (relative stereo) [Example 849, Trans-N-(3-chlorophenyl)-1-[(1-methyl-1H-imidazol-4-yl)sulfonyl]-4-(tetrahydro-2H-pyran-2-yl)pyrrolidin-3-amine]: the inhibition constant (Ki) under setting [2] is not above 100 nM.
On to `Cn1cnc(S(=O)(=O)N2C[C@H](Nc3ccc(F)c(F)c3)[C@@H](c3ccc(F)cc3)C2)c1` [Example 418, (3R,4S)-N-(3,4-difluorophenyl)-4-(4-fluorophenyl)-1-[(1-methyl-1H-imidazol-4-yl)sulfonyl]pyrrolidin-3-amine], for which the Ki under setting [1] was not above 100 nM.
The same measure, in the same setting: the value for `Cn1cnc(S(=O)(=O)N2C[C@H](Nc3cc(C(F)(F)F)ccn3)[C@@H](c3ccccc3)C2)c1` [Example 396, N-{(3R,4S)-1-[(1-methyl-1H-imidazol-4-yl)sulfonyl]-4-phenylpyrrolidin-3-yl}-4-(trifluoromethyl)pyridin-2-amine] was not above 10 nM; that for `Cn1cnc(S(=O)(=O)N2C[C@@H](NCc3ccc(C(F)(F)F)cc3Cl)[C@H](C3CCCCO3)C2)c1` (relative stereo) [Example 680, Trans-N-[2-chloro-4-(trifluoromethyl)benzyl]-1-[(1-methyl-1H-imidazol-4-yl)sulfonyl]-4-(tetrahydro-2H-pyran-2-yl)pyrrolidin-3-amine] was not above 100 nM; that for `Cn1cnc(S(=O)(=O)N2C[C@@H](Nc3ccc(Cl)c(C(F)(F)F)c3)[C@H](C3CCCO3)C2)c1` (stereo partly drawn) [Example 618, (3S,4R)-N-[4-chloro-3-(trifluoromethyl)phenyl]-1-[(1-methyl-1H-imidazol-4-yl)sulfonyl]-4-(tetrahydrofuran-2-yl)pyrrolidin-3-amine] was not above 1000 nM.
On the same count and under the same terms, under `Cn1cnc(S(=O)(=O)N2C[C@H](NCCOc3ccc(F)cc3)[C@@H](c3ccc(F)cc3)C2)c1` [Example 667, (3R,4S)-N-[2-(4-fluorophenoxy)ethyl]-4-(4-fluorophenyl)-1-[(1-methyl-1H-imidazol-4-yl)sulfonyl]pyrrolidin-3-amine] stands not above 100 nM; under `Cn1cnc(S(=O)(=O)N2C[C@H](NC(=O)NCc3ccccc3Cl)[C@@H](c3ccc(F)cc3)C2)c1` [Example 705, 1-(2-chlorobenzyl)-3-{(3R,4S)-4-(4-fluorophenyl)-1-[(1-methyl-1H-imidazol-4-yl)sulfonyl]pyrrolidin-3-yl}urea], not above 1000 nM.
Regarding `Cn1cnc(S(=O)(=O)N2C[C@@H](Nc3ccc(Cl)c(C(F)(F)F)c3)[C@H](C3CCOC3)C2)c1` (relative stereo) [Example 833, trans-N-[4-chloro-3-(trifluoromethyl)phenyl]-1-[(1-methyl-1H-imidazol-4-yl)sulfonyl]-4-(tetrahydrofuran-3-yl)pyrrolidin-3-amine], the Ki under setting [2] was not above 10000 nM.
In the case of `COc1cccc(C(=O)N[C@@H]2CN(S(=O)(=O)c3cn(C)cn3)C[C@H]2c2ccccc2)c1` (relative stereo) [Example 21, 3-methoxy-N-{trans-1-[(1-methyl-1H-imidazol-4-yl)sulfonyl]-4-phenylpyrrolidin-3-yl}benzamide], under setting [1], the Ki is not above 10000 nM.
The same measure, in the same setting: under `CCCCCCN[C@@H]1CN(S(=O)(=O)c2cn(C)cn2)C[C@H]1c1ncccc1F` (relative stereo) [Example 762, Trans-4-(3-fluoropyridin-2-yl)-N-hexyl-1-[(1-methyl-1H-imidazol-4-yl)sulfonyl]pyrrolidin-3-amine] stands not above 100 nM; under `COCC1(CN[C@H]2CN(S(=O)(=O)c3cn(C)cn3)C[C@@H]2c2ccccc2)CC1` [Example 590, (3R,4S)-N-{[1-(methoxymethyl)cyclopropyl]methyl}-1-[(1-methyl-1H-imidazol-4-yl)sulfonyl]-4-phenylpyrrolidin-3-amine], not above 10000 nM.
As for `Cn1cnc(S(=O)(=O)N2C[C@@H](Nc3ccc(F)c(F)c3)[C@H](c3ccccc3)C2)c1` (relative stereo) [Example 216, trans-N-(3,4-difluorophenyl)-1-[(1-methyl-1H-imidazol-4-yl)sulfonyl]-4-phenylpyrrolidin-3-amine], the Ki under setting [1] was not above 1000 nM.
Still for that read-out and setting: the value for `Cn1cnc(S(=O)(=O)N2C[C@@H](CNc3ccc(F)cc3)[C@H](c3ccc(F)cc3)C2)c1` (relative stereo) [Example 367, 4-Fluoro-N-({trans-4-(4-fluorophenyl)-1-[(1-methyl-1H-imidazol-4-yl)sulfonyl]pyrrolidin-3-yl}methyl)aniline] was not above 100 nM; that for `O=C(N[C@@H]1CN(S(=O)(=O)c2ccc(C(F)(F)F)cc2)C[C@H]1c1ccccc1)c1cccc(C(F)(F)F)c1Cl` (relative stereo) [Example 143, 2-chloro-N-[trans-4-phenyl-1-{[4-(trifluoromethyl)phenyl]sulfonyl}pyrrolidin-3-yl]-3-(trifluoromethyl)benzamide] was not above 10000 nM.
The same measure, in the same setting: the value for `Cn1cnc(S(=O)(=O)N2C[C@@H](CNCc3ccccc3)[C@H](c3ccc(F)cc3)C2)c1` (relative stereo) [Example 315, N-benzyl-1-{trans-4-(4-fluorophenyl)-1-[(1-methyl-1H-imidazol-4-yl)sulfonyl]pyrrolidin-3-yl}methanamine] was not above 1000 nM.
Take `Cn1cnc(S(=O)(=O)N2C[C@H](Nc3cccc(OCc4ccccc4)c3)[C@@H](c3ccccc3)C2)c1` [Example 773, (3R,4S)-N-[3-(benzyloxy)phenyl]-1-[(1-methyl-1H-imidazol-4-yl)sulfonyl]-4-phenylpyrrolidin-3-amine]: under setting [1], the Ki is not above 100 nM.
Regarding `Cn1cnc(S(=O)(=O)N2CC(Nc3ccc(Cl)c(C(F)(F)F)c3)C(c3ncco3)C2)c1` (centres unmarked) [Example 710, N-[4-chloro-3-(trifluoromethyl)phenyl]-1-[(1-methyl-1H-imidazol-4-yl)sulfonyl]-4-(1,3-oxazol-2-yl)pyrrolidin-3-amine], under setting [1], the Ki is not above 1000 nM.
